# Source: PubChem BioAssay (NCI)
#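 96-well plates; 48 h exposure; 5 concentrations. Endpoints by linear interpolation between flanking doses. Not reached: highest tested concentration assigned. Here, GI50 denotes the concentration required for 50% inhibition of growth. TGI: total growth inhibition.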
# How the values were obtained:
# Experiment in all cases: DTP human tumour cell line panel, 48 h
# [1] = tested on: SN12C renal
# [2] = tested on: UACC-62 melanoma
# [3] = tested on: U251 CNS
# [4] = tested on: RPMI-8226 leukemia
# [5] = tested on: M14 melanoma
# [6] = tested on: OVCAR-8 ovarian
# [7] = tested on: HCT-116 colon
# [8] = tested on: HOP-92 NSCLC
# [9] = tested on: TK-10 renal
# [10] = tested on: NCI-H226 lung
# [11] = tested on: PC-3 prostate
# [12] = tested on: HT29 colon
# [13] = tested on: NCI-H460 lung
# [14] = tested on: SF-539 CNS
# [15] = tested on: SF-268 CNS
# [16] = tested on: SF-295 CNS
# [17] = tested on: LOX IMVI melanoma
# [18] = tested on: UACC-257 melanoma
# [19] = tested on: A498 renal
# [20] = tested on: 786-0 renal
# [21] = tested on: MCF7 breast
# [22] = tested on: MDA-MB-435
# [23] = tested on: K-562 leukemia
# [24] = tested on: IGROV1 ovarian
# [25] = tested on: SK-MEL-5 melanoma
# [26] = tested on: COLO 205 colon
# [27] = tested on: HS 578T breast
# [28] = tested on: EKVX NSCLC
# [29] = tested on: HOP-62 NSCLC
# [30] = tested on: SK-MEL-28 melanoma
# [31] = tested on: KM12 colon
# [32] = tested on: SNB-19 CNS
# [33] = tested on: A549 NSCLC
# [34] = tested on: SW-620 colon
# [35] = tested on: SK-MEL-2 melanoma
# [36] = tested on: SK-OV-3 ovarian
# [37] = tested on: DU-145 prostate
# [38] = tested on: OVCAR-5 ovarian
# [39] = tested on: NCI/ADR-RES ovarian
# [40] = tested on: SNB-75 CNS
# [41] = tested on: NCI-H522 lung
# [42] = tested on: MDA-MB-231 breast
# [43] = tested on: MALME-3M melanoma
# [44] = tested on: OVCAR-4 ovarian
# [45] = tested on: BT-549 breast
# [46] = tested on: HCC-2998 colon
# [47] = tested on: T-47D breast
# [48] = tested on: HCT-15 colon
smiles,measurement,setting,value
C#Cc1nc(/C=C/CCCCCCC(=O)NO)cs1,GI50,[1],7.84 µM
same,TGI,[1],> 100 µM
same,GI50,[2],3.1 µM
same,TGI,[2],15 µM
same,GI50,[3],3.47 µM
same,TGI,[3],18.6 µM
same,GI50,[4],1.41 µM
same,TGI,[4],5.21 µM
same,GI50,[5],5.18 µM
same,TGI,[5],61.4 µM
same,GI50,[6],3.45 µM
same,TGI,[6],> 100 µM
same,GI50,[7],2.7 µM
same,TGI,[7],10.5 µM
same,GI50,[8],1.18 µM
same,TGI,[8],2.76 µM
same,GI50,[9],2.29 µM
same,TGI,[9],16.3 µM
same,GI50,[10],13.3 µM
same,TGI,[10],53.6 µM
same,GI50,[11],5.27 µM
same,TGI,[11],> 100 µM
same,GI50,[12],4.26 µM
same,TGI,[12],31.4 µM
same,GI50,[13],4.16 µM
same,TGI,[13],> 100 µM
same,GI50,[14],1.59 µM
same,TGI,[14],3.05 µM
same,GI50,[15],3.89 µM
same,TGI,[15],14.9 µM
same,GI50,[16],5.52 µM
same,TGI,[16],19.3 µM
same,GI50,[17],0.185 µM
same,TGI,[17],0.352 µM
same,GI50,[18],3.39 µM
same,TGI,[18],> 100 µM
same,GI50,[19],3.7 µM
same,TGI,[19],16.8 µM
same,GI50,[20],6.72 µM
same,TGI,[20],47.7 µM
same,GI50,[21],5.03 µM
same,TGI,[21],> 100 µM
same,GI50,[22],5.67 µM
same,TGI,[22],> 100 µM
same,GI50,[23],2.95 µM
same,TGI,[23],> 100 µM
same,GI50,[24],1.63 µM
same,TGI,[24],3.38 µM
same,GI50,[25],4.81 µM
same,TGI,[25],17.4 µM
same,GI50,[26],4.73 µM
same,TGI,[26],18 µM
same,GI50,[27],3.59 µM
same,TGI,[27],76.3 µM
same,GI50,[28],22.7 µM
same,TGI,[28],> 100 µM
same,GI50,[29],5.47 µM
same,TGI,[29],58.7 µM
same,GI50,[30],9.61 µM
same,TGI,[30],94.7 µM
same,GI50,[31],5.32 µM
same,TGI,[31],42.6 µM
same,GI50,[32],16 µM
same,TGI,[32],> 100 µM
same,GI50,[33],6.23 µM
same,TGI,[33],> 100 µM
same,GI50,[34],2.14 µM
same,TGI,[34],4.9 µM
same,GI50,[35],20.6 µM
same,TGI,[35],85.5 µM
same,GI50,[36],5.12 µM
same,TGI,[36],28.3 µM
same,GI50,[37],3.01 µM
same,TGI,[37],> 100 µM
same,GI50,[38],3.07 µM
same,TGI,[38],> 100 µM
same,GI50,[39],2.15 µM
same,TGI,[39],13.6 µM
same,GI50,[40],1.74 µM
same,TGI,[40],9.61 µM
same,GI50,[41],3.05 µM
same,TGI,[41],17.9 µM
same,GI50,[42],2.25 µM
same,TGI,[42],5.13 µM
same,GI50,[43],1.53 µM
same,TGI,[43],3.12 µM
same,GI50,[44],2.31 µM
same,TGI,[44],6.34 µM
same,GI50,[45],4.05 µM
same,TGI,[45],49.5 µM
same,GI50,[46],11.6 µM
same,TGI,[46],36.9 µM
same,GI50,[47],3.08 µM
same,TGI,[47],33.8 µM
same,GI50,[48],7.53 µM
same,TGI,[48],> 100 µM
